# Target: T1, CbCBP (cellobiose phosphorylase) (Caldicellulosiruptor bescii, UniProt A0ABY1SBL4)
# T1 construct: gene SAMN05216240_2653; C-terminal (His)6 tag, pET20b, E. coli BL21 CodonPlus-RIL; 94 kDa on SDS-PAGE, about 200 kDa native (homodimer); GH94
# T1 sequence (A0ABY1SBL4 1-811): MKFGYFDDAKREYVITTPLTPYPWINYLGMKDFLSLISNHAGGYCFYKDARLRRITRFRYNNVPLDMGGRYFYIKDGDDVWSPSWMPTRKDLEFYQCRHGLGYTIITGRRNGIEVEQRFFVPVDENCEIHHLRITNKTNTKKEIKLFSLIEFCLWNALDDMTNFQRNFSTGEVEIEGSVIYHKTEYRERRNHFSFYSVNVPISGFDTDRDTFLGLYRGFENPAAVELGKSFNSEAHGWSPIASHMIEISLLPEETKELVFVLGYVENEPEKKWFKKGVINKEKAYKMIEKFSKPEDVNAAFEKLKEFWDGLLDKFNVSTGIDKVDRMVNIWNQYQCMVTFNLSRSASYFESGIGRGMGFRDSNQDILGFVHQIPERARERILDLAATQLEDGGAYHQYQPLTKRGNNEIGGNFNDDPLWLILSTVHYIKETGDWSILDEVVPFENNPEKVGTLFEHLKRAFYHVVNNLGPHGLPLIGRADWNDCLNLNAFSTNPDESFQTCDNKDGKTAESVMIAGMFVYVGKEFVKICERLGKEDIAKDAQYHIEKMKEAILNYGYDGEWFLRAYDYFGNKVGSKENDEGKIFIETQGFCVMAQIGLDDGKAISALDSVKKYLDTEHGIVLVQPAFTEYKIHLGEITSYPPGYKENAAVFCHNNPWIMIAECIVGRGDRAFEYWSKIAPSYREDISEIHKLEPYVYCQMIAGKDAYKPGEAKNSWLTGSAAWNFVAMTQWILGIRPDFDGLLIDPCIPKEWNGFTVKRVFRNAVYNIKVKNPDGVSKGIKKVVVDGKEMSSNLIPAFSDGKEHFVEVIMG
# Assay: initial velocity, D-glucose release (glucose oxidase-peroxidase), fit to ordered Bi Bi equation
# Assay type: biochemical
# Settings: phosphorolysis; substrate constant of the ordered Bi Bi rate equation with A = cellobiose, not an inhibitor constant; text states Pi binds first; MES-NaOH pH 7.0; 75 °C in Methods, 70 °C in Results
# Text: initial velocity, D-glucose release (glucose oxidase-peroxidase), fit to ordered Bi Bi equation on CbCBP (cellobiose phosphorylase)
structure (smiles),measurement,value
OC[C@H]1O[C@@H](O[C@H]2[C@H](O)[C@@H](O)C(O)O[C@@H]2CO)[C@H](O)[C@@H](O)[C@@H]1O (stereo partly shown) [cellobiose],Ki^A,3.3 mM

# — article PMC8913831 (Scientific Reports, 2022)
